The values below come from patent US6489490B1, “2-(2-chlorophenyl)-3,4-dihydro-2h-pyrrol derivatives” (Bayer Aktiengesellschaft, priority 1998, dated 2002).

Structures are written as SMILES. Where two headings read alike, the source gives them in different places.

Data set [1] in a line: log P determined by HPLC analysis. The data set is classed as physicochemical. The protocol:
log P*=[…] logarithm to base 10 of the […] partition coefficient, determined by HPLC analysis on 125×4.0 mm Kromasil 120 C 18 (5 μm), using water/acetonitrile as mobile phase; flow rate: 1.5 ml/min.

Data set [2] has as its system all stages of the greenhouse red spider mite (Tetranychus urticae). The experiment in a line: Tetranychus test (OP-resistant/dip treatment). It counts as in vivo. Particulars: concentration of active compound at most 0.1%, after 6 days, dipped bean plants. Here is the method: Tetranychus Test (OP-resistant/dip Treatment)
(§1) Solvent: 7 parts by weight of dimethylformamide
(§2) Emulsifier: 1 part by weight of alkylaryl polyglycol ether
To produce a suitable preparation of active compound, 1 part by weight of active compound is mixed with the stated amounts of solvent and emulsifier, and the concentrate is diluted with emulsifier-containing water to the desired concentration.
Bean plants (Phaseolus vulgaris) which are heavily infested by all stages of the greenhouse red spider mite (Tetranychus urticae) are dipped into a preparation of the active compound of the desired concentration.
After the desired period of time, the kill in % is determined. 100% means that all spider mites have been killed; 0% means that none of the spider mites have been killed.

Data set [3] deals with caterpillars of the army-worm (Spodoptera frugiperda). The experiment in a line: Spodoptera frugiperda test. It counts as in vivo. Particulars: concentration of active compound at most 0.1%, after 6 days, dipped cabbage leaves. Here is the method:
Spodoptera frugiperda Test
as §1, §2
(§3) To produce a suitable preparation of active compound, 1 part by weight of active compound is mixed with the stated amounts of solvent and emulsifier, and the concentrate is diluted with emusifier-containing water to the desired concentration.
Cabbage leaves (Brassica oleracea) are treated by being dipped into the preparation of active compound of the desired concentration and are populated with caterpillars of the army-worm (Spodoptera frugiperda) while the leaves are still moist.
(§4) After the desired period of time, the kill in % is determined. 100% means that all caterpillars have been killed; 0% means that none of the caterpillars have been killed.

For data set [4], the system named is caterpillars of the cotton bollworm (Heliothis armigera). The experiment in a line: Heliothis armigera test. The data set is classed as in vivo. Particulars: concentration of active compound 0.004%, after 6 days, dipped soybean shoots. The protocol: as §1, §2, §3
Soybean shoots (Glycine max) are treated by being dipped into the preparation of active compound of the desired concentration and are populated with caterpillars of the cotton bollworm (Heliothis armigera) while the leaves are still moist.
as §4

Data set [5] relates to caterpillars of the diamond-back moth (Plutella xylostella). The experiment in a line: Plutella test. Particulars: concentration of active compound 0.004%, after 6 days, dipped cabbage leaves. It counts as in vivo. Here is the method:
as §1, §2, §3
Cabbage leaves (Brassica oleracea) are treated by being dipped into the preparation of active compound of the desired concentration and are populated with caterpillars of the diamond-back moth (Plutella xylostella) while the leaves are still moist.
as §4

For data set [6], the system named is larvae of the mustard beetle (Phaedon cochleariae). The experiment in a line: Phaedon larvae test. Particulars: concentration of active compound 0.004%, after 6 days, dipped cabbage leaves. The data set is classed as in vivo. The protocol: Phaedon Larvae Test Solvent: 7 parts by weight of dimethylformamide Emulsifier: 1 part by weight of alkylaryl polyglycol ether To produce a suitable preparation of active compound, 1 part by weight of active compound is mixed with the stated amounts of solvent and emulsifier, and the concentrate is diluted with emusifier-containing water to the desired concentration. Cabbage leaves (Brassica oleracea) are treated by being dipped into the preparation of active compound of the desired concentration and are populated with larvae of the mustard beetle (Phaedon cochleariae) while the leaves are still moist.

The mark [7] stands for this setting: pH 2.3, HPLC, read-out: log P (pH 2.3).

Take `O=C1CCC(c2ccc(-c3ccc(OC(F)(F)C(F)F)cc3)cc2)N1` (stereo not drawn) [Example XI-43]: in data set [1] (setting [7]), the chromatographic logP was 2.79. Same read-out and setting: then `CC(C)(C)OC(=O)NC(CCC(=O)c1ccccc1Cl)c1ccc(-c2ccc(OC(F)(F)C(F)F)cc2)cc1` (stereo not drawn) [Example VIII-43], with 4.94; and `FC(F)C(F)(F)Oc1ccc(-c2ccc(C3CCC(c4ccccc4Cl)=N3)cc2)cc1` (stereo not drawn) [Example I-43], with 4.01.

On to `FC(F)(F)Oc1ccc(-c2ccc(C3CCC(c4ccccc4Cl)=N3)cc2)cc1` (stereo not drawn) [Example I-7], for which the kill in % in data set [2], in data set [3], in data set [4], in data set [5] and in data set [6] was 100% in each case. For the molecule `CC(C)(C)OC(=O)N1C(=O)CCC1c1ccc(-c2ccc(OC(F)(F)C(F)F)cc2)cc1` (stereo not drawn) [Example IX-43], in data set [1] (setting [7]), the chromatographic logP stood at 3.96.

Turning to `O=C(c1ccccc1Cl)C1CC(c2ccccc2)N(C(=O)c2ccccc2Cl)C1=O` (stereo not drawn) [Example G(II)-20, 1,3-(2-chlorobenzoyl)-5-phenyl-pyrrolidin-2-one], the chromatographic logP in data set [1] (pH 2.5, read-out: log P (pH 2.5)) was determined as 3.91. Consider `Clc1ccccc1C1=NC(c2ccccc2)CC1` (stereo not drawn) [Example I-20], for which the “log P* (pH 7.5)” value in data set [1] (pH 7.5, HPLC, Kromasil 120 C 18, water/acetonitrile) was 3.6 l. In data set [2], this molecule showed a kill in % of 100%.
